US4247706A, “Dibenzothiepin derivatives and a process for producing the same” (Nippon Chemiphar Co., Ltd., priority 1978, dated 1981)

Key:
[1] = test system: edema in the hind paws (carrageenan); test: Antiinflammatory effect: carrageenan-induced edema of the hind paws; format: in vivo, Male Wister rats; settings: oral, rat; for Inhibition (%) (after 3 hours): 1% carrageenan edema
Description: Male Wister rats each weighing about 100 g, one group consisting of 5 to 7 rats, were orally given test compounds, and edema was then induced in the hind paws by a subcutaneous injection of 0.1 ml of a 1% carrageenan saline solution one hour after the administration of the test compounds. With a predetermined lapse of time, the volumes of the hind paws were measured by a volume differential meter. Indomethacin was used as an active placebo.

[2] = test system: writhing syndromes (acetic acid); test: Analgesic effect: acetic acid-induced writhing syndromes; format: in vivo, dd Male mice; settings: oral, mouse, 0.6% acetic acid writhing within 20 minutes
Description: dd Male mice each weighing 18 to 22 g, one group consisting of 10 mice, were given by an intraperitoneal injection of 0.6% acetic acid in a dosage of 0.1 ml/10 g/body weight. The number of writhing syndromes occurring within 20 minutes after the injection was observed. These animals were given orally test compounds suspended in a 0.2% carboxymethylcellulose solution 30 minutes before the injection of acetic acid. The inhibitory percentage of each of the test compounds was calculated in comparison with a control in which a 0.2% carboxymethylcellulose solution only was given. Aspirin was used as an active placebo.

[3] = LD50 by the Lichfield-Wilcoxon method; settings: rat, in vivo, rats
Text: This fact confirms the excellent effects of the present compounds.

Structure (SMILES)	Antiinflammatory activity (ratio to Indomethacin) [1]	Analgesic activity (ratio to Aspirin) [2]	Inhibition (%) (after 3 hours) ([1]; 2 mg/kg)	LD50 [3] [mg/kg]	Inhibition (%) (after 3 hours) ([1]; 4 mg/kg)
O=C(O)Cc1ccc2c(c1)CC(=O)c1ccccc1S2 [Comparative compound A]	0.01	1	–	–	–
O=C(O)Cc1ccc2c(c1)Sc1ccccc1C(=O)C2 [Comparative compound B]	0.01	1	–	–	–
CC(C(N)=O)c1ccc2c(c1)CC(=O)c1ccccc1S2 (centres unmarked) [Compound 1, 2-(10,11-Dihydro-10-oxodibenzo[b,f]thiepin-2-yl)-propionamide]	–	–	52.5	–	–
CC(C(=O)O)c1ccc2c(c1)CC(=O)c1ccccc1S2 (centres unmarked) [Compound 2, 2-(10,11-Dihydro-10-oxodibenzo[b,f]thiepin-2-yl)-propionic acid]	2	20	55.8	232	–
COc1ccc2c(c1)c(CC(=O)O)c(C)n2C(=O)c1ccc(Cl)cc1 [Indomethacin]	–	–	35.9	–	51.9
